Measurements from US7709637B2, “5-phenylpyrimidines, their preparation, intermediates for their preparation, and their use for controlling harmful fungi” (BASF SE, priority 2001, dated 2010).

Legend:
[1] = Lipophilicity parameter logPow by RP-HPLC run time method (OECD guideline); assay type: physicochemical; conditions: C18 stationary phase, methanol/buffer pH 7.4, isocratic
Protocol: The lipophilicity parameters logPow (Table I) were determined as specified by OECD directive test guidelines using the RP-HPLC run time method.
To this end, a logk′/logPow correlation curve based on ten reference substances was plotted and validated with the aid of the lipophilicity parameters of eight comparative substances, which had been established by the extraction method.
A commercially available reversed-phase C18 stationary phase was used as stationary phase. Chromatographic separation was carried out with methanol and a buffer solution as mobile phase at pH 7.4 under isocratic conditions.
The retention times of the standards tR were converted in accordance with equation Φ into the capacity factors k′, where t0, as […] of the solvent unretarded on the reversed-phase C18 stationary phase, represents the dead time of the chromatographic system:
The linear correlation of the logk′ values with the logPow values of the standards published in the appendix to the Directive 92/69/EEC yields the correlation curve through linear regression.
The lipophilicity parameters logPow of the analytes were interpolated from the correlation curve of the standards after calculation of the logarithmic capacity logk′.
The validation of the RP-HPLC analytical method described, and of the standards used, is carried out with the aid of eight comparison active compounds, the distribution behavior of which was determined with the aid of the extraction method.

SMILES | melting point [°C] | logPow [1]
C[C@H](Nc1nc(-n2cccn2)nc(Cl)c1-c1c(F)cc(F)cc1F)C(F)(F)F [I-2, (S)-6-Chloro-4-(2,2,2-trifluoro-1-methylethyl)amino-5-(2,4,6-trifluorophenyl)-2-(1-pyrazolyl)pyrimidine] | 209 | 
C[C@H](Nc1nc(-n2ccnc2)nc(Cl)c1-c1c(F)cc(F)cc1F)C(F)(F)F [I-3, (S)-6-Chloro-4-(2,2,2-trifluoro-1-methylethyl)amino-5-(2,4,6-trifluorophenyl)-2-(1-imidazolyl)pyrimidine] | 172 to 173 | 
C[C@H](Nc1nc(-n2cncn2)nc(Cl)c1-c1c(F)cc(F)cc1F)C(F)(F)F [I-4, (S)-6-Chloro-4-(2,2,2-trifluoro-1-methylethyl)amino-5-(2,4,6-trifluorophenyl)-2-(1,2,4-triazol-1-yl)pyrimidine] | 176 to 177 | 
CCN(CC)c1nc(-c2ncccn2)nc(Cl)c1-c1c(F)cccc1Cl [I-9] |  | logPow 3.86
CC(C)Nc1nc(-c2ncccn2)nc(Cl)c1-c1c(F)cc(F)cc1F [I-11] |  | logPow 3.15
CCN(CC)c1nc(-c2cnccn2)nc(Cl)c1-c1c(F)cccc1Cl [I-14] |  | logPow 4.49

The remaining lines, values ahead:

melting point [°C] | logPow [1] | SMILES
 | logPow 4.7 | CC(C)Nc1nc(-c2cnccn2)nc(Cl)c1-c1c(F)cc(F)cc1F [I-18]
 | logPow 4.41 | CCN(CC)c1nc(-c2cnccn2)nc(Cl)c1-c1c(F)cc(F)cc1F [I-20]
 | logPow 4.48 | CC(C)N(C)c1nc(-c2cnccn2)nc(Cl)c1-c1c(F)cc(F)cc1F [I-21]
 | logPow 4.72 | CC(C)(C)CNc1nc(-c2cnccn2)nc(Cl)c1-c1c(F)cc(F)cc1F [I-22]
